Measurements taken from patent US9945845B2, “Methods of screening using amphibians” (priority 2009, dated 2018).
“Also recorded” adds a separate entry of the source. Where a name gives a salt, the structure may show the parent alone. Read-outs that look alike come from different tables or passages of the source.

Legend:
Xenopus embryos = settings: for Lethality (NF) / Onset (NF) / edema or other phenotype in compound-treated Xenopus embryos/tadpoles (in words): 1% DMSO; for Lethality: — = no stage of lethality given; for Onset (NF): onset of edema; for Type of edema Ventral: ‡ = edemas also detected in the gut
Outline: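 Stage 31 (37 hpf) Xenopus embryos, five per well, exposed to 20 µM compound in 1% DMSO at 23 °C for 4 days. Edema, lethality and other external phenotypes were scored daily by two investigators at stages 39, 41, 45 and 47.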

HUVEC [1] = assay: HUVEC cell proliferation assay; assay type: cell-based, human; settings: 10 μM in 0.1% DMSO, 48 hours; for activity at 10 µM: Homo sapiens, HUVEC, 48 h, read-out: HUVEC proliferation
Experimental: (§1) Human umbilical vein endothelial cells (HUVEC) were purchased from PromoCell. […] HUVEC and LEC were cultured in endothelial basal medium EBM (Cambrex) supplemented with 20% fetal bovine serum (Invitrogen), antibiotic-antimycotics (100 U/ml penicillin, 100 μg/ml streptomycin, 250 ng/ml amphotericin; Invitrogen). 2 mM L-glutamine (Invitrogen), 10 μg/ml hydrocortisone (Fluka) and 25 μg/ml N^6,2′-O-dibutyryladenosine 3′,5′-cyclic monophosphate sodium salt (Fluka) for up to eleven passages.
(§2) The intensity of fluorescence, which is proportional to the number of viable cells, was measured using a microplate reader (SpectraMax Gemini EM; Molecular Devices). The chemical treatments were performed in five replicates.
(§3) The cell proliferation assays were performed by treating the endothelial cell cultures with compounds at a screening dose of 10 μM in 0.1% DMSO for 48 hours (FIG. 6a; Table 10).

[2] = test system: blood vessel development and/or lymphangiogenesis in Xenopus embryos; assay type: in vivo, Xenopus laevis; settings: for lymph vessel development phenotype (vegfr3 expression, in words): 20 μM from stage 31, fixed at stage 42; for ALH phenotype: anterior lymph heart; for ALS phenotype: anterior lymph sac; for PLV phenotype: posterior lymph vessels
Experimental: All chemicals were purchased from Sigma and 10-mM stock solutions in DMSO were prepared. Chemicals were used at a final concentration of 20 μM in screening medium to treat homozygous albino Xenopus embryos, which lack natural pigmentation. Chemical treatments of embryos (n=7 per well) was initiated at stage 31 (37 hpf) and terminated at stages 35/36 (50 hpf) or 42 (80 hpf). Embryos were fixed in 4% paraformaldehyde and processed for whole mount in situ hybridization.
Where albino embryos were used, the bleaching step was omitted. Semi-automated whole mount in situ hybridizations were performed using the Biolane HTI machine (Hölle & Hüttner AG, Germany). […] Images were captured using a stereomicroscope (SteREO Lumar V12; Carl Zeiss) equipped with a digital camera (AxioCam Color; Carl Zeiss). Composite figures were organized and labeled using Adobe Photoshop CS2 and Adobe Illustrator CS software.
Edema formation or late-stage lethality may result from excretory system defects, (cardio)vascular and/or lymphatic vascular pathologies. […] Embryos were fixed for in situ hybridization either at stage 35/36 to analyze vasculogenesis and intersomitic vein angiogenesis defects or at stage 42 to evaluate possible defects in lymph vessel development (FIGS. 3-5).

LEC [3] = assay: LEC cell proliferation assay; assay type: cell-based, human; settings: 10 μM in 0.1% DMSO, 48 hours; for activity at 10 µM: Homo sapiens, 48 h, read-out: LEC proliferation
Experimental: as §1, §2, §3

LEC [4] = assay: cells; assay type: cell-based, human; settings: 1 μM in 0.1% DMSO; for activity at 1 µM: Homo sapiens
Experimental: as §1
(§4) The effect of the selected chemicals on the formation of tube-like structures was performed as follows. […] After overnight incubation at 37° C. the treated cell cultures were fixed with 4% paraformaldehyde. Each chemical treatment was performed in triplicate and the experiment was repeated at least three times. Three representative images of hotspots with tube-like structures were taken per well using a digital camera (AxioCam MRm, Carl Zeiss) mounted on an inverted microscope (Axiovert 200M, Carl Zeiss). The length of the tube-like structures was measured using the IPLab software (BD Biosciences). For each experimental condition, results are represented as average total tube length (μm) per area (three image fields).
(§5) The effects of the selected compounds on endothelial tube formation was assessed after over treatment of LEC and HUVEC cultures at a compound concentration of 1 μM in 0.1% DMSO. The length of the tube-like structures was measured using the IPLab software.

HUVEC [5] = assay: HUVEC tube formation assay; assay type: cell-based, human; settings: 1 μM in 0.1% DMSO; for activity at 1 µM: Homo sapiens, HUVEC
Experimental: as §1, §4, §5

[6] = compounds causing edema, 20 μM, treatment from stage 31, scored to stage 47
[7] = 20 μM, treatment from stage 31, Nieuwkoop & Faber stage
[8] = 20 μM from stage 31, fixed at stage 35/36
[9] = intersomitic vessels, Xenopus embryos
[10] = posterior cardinal vein, Xenopus embryos
[11] = vitelline vein network, Xenopus embryos
[12] = overnight, read-out: LEC tube formation
[13] = read-out: LEC tube formation (tube length)
[14] = overnight, read-out: HUVEC tube formation
[15] = read-out: HUVEC tube formation (tube length)
[16] = compounds causing lethality, 20 μM, treatment from stage 31, Nieuwkoop & Faber stage

SMILES	Lethality (NF) (Xenopus embryos; [6])	Type of edema Pericordial (Xenopus embryos; embryonic stage)	Lethality (Xenopus embryos; embryonic stage)	Onset (NF) (Xenopus embryos; [7])	activity at 10 µM (HUVEC [1])	blood vessel development phenotype (apj expression, in words) [2, 8]	ISV phenotype [2, 9]	PCV phenotype [2, 10]	VVN phenotype [2, 11]	activity at 10 µM (LEC [3])	activity at 1 µM (LEC [4]; [12])	activity at 1 µM (LEC [4]; [13])	activity at 1 µM (HUVEC [5]; [14])	activity at 1 µM (HUVEC [5]; [15])	ALH phenotype ([2]; Xenopus embryos)	ALS phenotype ([2]; Xenopus embryos)	PLV phenotype ([2]; Xenopus embryos)	other results
COC(=O)Nc1nc2ccc(C(=O)c3cccs3)cc2[nH]1 [Nocodazole]	33/34	33/34	33/34	33/34	65 to 82%	interfered with blood vessel vasculogenesis and PCV assembly	impaired	hypoplastic	hypoplastic	65 to 82%	< 50%	< 35%	< 50%	< 35%	–	–	–	–
CCCCOC(=O)NS(=O)(=O)c1sc(CC(C)C)cc1-c1ccc(Cn2c(CC)nc3c(C)cc(C)nc32)cc1 [L-162,313]	–	–	–	–	–	potent inhibitors of developmental angiogenesis	impaired	normal	hypoplastic	–	–	–	–	–	–	–	–	Lethality (NF) (Xenopus embryos; [16]): 45 NF; Embr. phen. (Xenopus embryos; embryonic phenotype in the primary screen): LET; HUVEC proliferation (HUVEC [1]): + (+, moderate promotion (>115-150% of control).); Lymphatic phenotype ([2]; Xenopus embryos): normal; LEC proliferation (LEC [3]): O (O, inactive or marginal effects (85-115% of control);); LEC tube formation (LEC [4]; overnight): − (−, moderate inhibition (50-85% of control):); HUVEC tube formation (HUVEC [5]; overnight): − (−, moderate inhibition (50-85% of control):)
COC(=O)C1=C(C)NC(C)=C(C(=O)OCCN(C)Cc2ccccc2)C1c1cccc([N+](=O)[O-])c1 (centres unmarked) [Nicardipine hydrochloride]	45 NF	41/42	45 embryonic stages according to Nieuwkoop and Faber (NF)	41/42	85 to 115%	–	–	–	–	85 to 115%	85 to 115%	85 to 115%	85 to 115%	85 to 115%	dysplastic	dysplastic	hypoplastic	Type of edema Ventral (Xenopus embryos; embryonic stage): 41/42; lymph vessel development phenotype (vegfr3 expression, in words) ([2]; hydrochloride): inhibiting preferentially lymphatic vascular development; also recorded: discontinuatous, dysplastic lymphatic vessels; Blood vessel phenotype ([2]; Xenopus embryos): normal
N#CC(=Cc1ccc(O)c(O)c1)C(=O)Nc1ccccc1 [Tyrphostin AG 494, N-Phenyl-3,4-dihydroxybenzylidenecyanoacetamide]	40 NF	39 embryonic stages according to Nieuwkoop and Faber (NF)	40 embryonic stages according to Nieuwkoop and Faber (NF)	–	85 to 115%	–	impaired	hypoplastic	hypoplastic	85 to 115%	50 to 85%	–	85 to 115%	–	–	–	–	effect on LEC tube formation (in words) (LEC [4]): preferentially blocked tube formation in LEC rather than HUVEC cultures
CCn1c(=O)c2[nH]c(-c3ccccc3)nc2n(CC)c1=O [1,3-Diethyl-8-phenylxanthine]	45 NF	41/42	45 embryonic stages according to Nieuwkoop and Faber (NF)	41/42	85 to 115%	hyperplasia of the VVN, while ISV angiogenesis occurred unaffected	normal	normal	hyperplastic	85 to 115%	85 to 115%	90%	115 to 150%	123%	stunted	stunted	hypoplastic	Type of edema Ventral (Xenopus embryos; embryonic stage): 41/42; lymph vessel development phenotype (vegfr3 expression, in words) [2]: lymphangiogenesis was largely suppressed
O=c1c(-c2ccc(O)cc2)coc2cc(O)cc(O)c12 [Genistein, 5,7-Dihydroxy-3-(4-hydroxyphenyl)-4H-1-benzopyran-4-one]	46 NF	–	41/42	35/36	85 to 115%	stunted ISVs and hyperplastic VVN	stunted	normal	hyperplastic	85 to 115%	50 to 85%	50 to 85%	50 to 85%	50 to 85%	impaired	impaired	impaired	edema or other phenotype in compound-treated Xenopus embryos/tadpoles (in words) (Xenopus embryos; 20 μM, treatment from stage 31): edemas localized to the tail tip; Type of edema Tail tip (Xenopus embryos; embryonic stage): 35/36; lymph vessel development phenotype (vegfr3 expression, in words) [2]: lymphatic vessels and LECs were absent
COc1cc(OC)c(C=C2C(O)=Nc3ccccc32)c(OC)c1 [IC 261, 1,3-Dihydro-3-[(2,4,6-trimethoxyphenyl)methylene]-2H-indol-2-one]	41/42	35/36	41/42	35/36	85 to 115%	interfered with blood vessel vasculogenesis and PCV assembly	impaired	hypoplastic	hypoplastic	50 to 85%	50 to 85%	50 to 85%	50 to 85%	50 to 85%	–	–	–	Type of edema Proctodeal (Xenopus embryos; embryonic stage): 41/42; Type of edema Pronephric (Xenopus embryos; embryonic stage): 41/42; effect on LEC proliferation (in words) (LEC [3]): inhibited preferentially LEC proliferation
Cc1cc(C)c(C=C2C(=O)Nc3ccccc32)[nH]1 [SU 5416, 1,3-Dihydro-3-[(3,5-dimethyl-1H-pyrrol-2-yl)methylene]-2H-indol-2-one]	–	–	–	–	85 to 115%	–	–	–	–	85 to 115%	50 to 85%	–	85 to 115%	–	–	–	–	edema or other phenotype in compound-treated Xenopus embryos/tadpoles (in words) (Xenopus embryos; 20 μM, treatment from stage 31): causing lethality; scored in the phenotypic Xenopus screens (Xenopus embryos; 20 μM, known antiangiogenic compounds): active; Lethality (NF) (Xenopus embryos; [16]): 37/38; ISV phenotype ([2]; in vivo): impaired; PCV phenotype ([2]; in vivo): normal; VVN phenotype ([2]; in vivo): hypoplastic; blood vessel development phenotype (apj expression, in words) ([2]; in vivo): block ISV outgrowth; effect on LEC tube formation (in words) (LEC [4]): preferentially blocked tube formation in LEC rather than HUVEC cultures
